# Assay results reported in patent US20100256104A1, “NOVEL AMIDE COMPOUNDS” (ASTRAZENECA R&D, priority 2009, published 2010).
# Molecular target: T1, recombinant human GR (Homo sapiens, UniProt P04150)
# T1 construct: purchased Panvera/Invitrogen P2812 (kit P2893)
# T1 sequence (P04150 1-777): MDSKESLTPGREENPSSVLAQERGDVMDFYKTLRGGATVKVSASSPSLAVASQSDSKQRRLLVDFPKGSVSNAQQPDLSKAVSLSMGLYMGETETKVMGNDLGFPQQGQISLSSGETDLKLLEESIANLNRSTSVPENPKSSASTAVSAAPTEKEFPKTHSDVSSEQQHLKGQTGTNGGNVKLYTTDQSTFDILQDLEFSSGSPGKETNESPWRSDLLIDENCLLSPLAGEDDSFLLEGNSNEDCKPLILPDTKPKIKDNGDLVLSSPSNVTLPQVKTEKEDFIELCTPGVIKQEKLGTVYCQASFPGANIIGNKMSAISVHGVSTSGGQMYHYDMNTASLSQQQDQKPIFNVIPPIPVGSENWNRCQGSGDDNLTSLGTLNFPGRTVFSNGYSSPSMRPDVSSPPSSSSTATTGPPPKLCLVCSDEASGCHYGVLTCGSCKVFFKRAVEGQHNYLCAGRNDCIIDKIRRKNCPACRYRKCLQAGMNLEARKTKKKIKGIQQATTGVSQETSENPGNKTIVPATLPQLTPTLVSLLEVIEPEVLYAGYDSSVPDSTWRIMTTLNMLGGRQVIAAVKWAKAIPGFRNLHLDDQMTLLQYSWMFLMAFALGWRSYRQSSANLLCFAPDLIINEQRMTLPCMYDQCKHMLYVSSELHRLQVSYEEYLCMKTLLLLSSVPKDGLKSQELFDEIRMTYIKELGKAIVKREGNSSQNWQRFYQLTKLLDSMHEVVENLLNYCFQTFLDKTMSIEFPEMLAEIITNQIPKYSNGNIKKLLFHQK
# Assay: Human Glucocorticoid Receptor (GR) Assay, fluorescence polarization competition with GS Red tracer
# Settings: 2 hours at room temperature, 100% control 10 μM Dexamethasone, XLfit model 205, read-out: Inhibition of GR binding, IC50
# How it was run: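 Fluorescence polarization competition: recombinant human GR with GS Red tracer, stabilizing peptide and DTT in potassium phosphate/sodium molybdate/EDTA buffer. 2 h in dark at room temperature, read at ex 530/em 590 nm. Controls: DMSO (0%) and 10 μM dexamethasone (100%).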
row,Compound,IC50 [nM]
1,"C[C@]12Cc3cnn(-c4cccc(C(=O)N5CCC[C@@H]5C(N)=O)c4)c3C=C1CC[C@@H]1[C@@H]2[C@@H](O)C[C@@]2(C)[C@H]1CC[C@]2(OC(=O)c1cocn1)C(=O)SCF [Example 50, (1R,3aS,3bS,10aR, 10bS,11S,12aS)-7-(3-{[(2R)-2-carbamoyl-pyrrolidin-1-yl]carbonyl}phenyl)-1-{[(fluoromethyl)sulfanyl]carbonyl}-11-hydroxy-10a,12a-dimethyl-1,2,3,3a,3b,4,5,7,10, 10a,10b,11,12,12a-tetradecahydrocyclo-penta[5,6]naphtho [1,2-f]indazol-1-yl 1,3-oxazole-4-carboxylate]",8.2
2,"COCC(=O)O[C@]1(C(=O)SCC#N)CC[C@H]2[C@@H]3CCC4=Cc5c(cnn5-c5cccc(C(=O)NCC(N)=O)c5)C[C@]4(C)[C@H]3[C@@H](O)C[C@@]21C [Example 51, (1R,3aS,3bS,10aR, 10bS,11S,12aS)-7-{3-[(2-amino-2-oxoethyl)carbamoyl]phenyl}-1-{[(cyanomethyl)sulfanyl]carbonyl}-11-hydroxy-10a,12a-dimethyl-1,2,3,3a,3b,4,5,7,10, 10a,10b,11,12,12a-tetradecahydrocyclo-penta[5,6]naphtho [1,2-f]indazol-1-yl methoxyacetate]",2.8
3,"COCC(=O)O[C@]1(C(=O)SCC#N)CC[C@H]2[C@@H]3CCC4=Cc5c(cnn5-c5cccc(C(=O)NCc6cccnc6)c5)C[C@]4(C)[C@H]3[C@@H](O)C[C@@]21C [Example 52, (1R,3aS,3bS,10aR, 10bS,11S,12aS)-1-{[(cyanomethyl)sulfanyl]carbonyl}-11-hydroxy-10a,12a-dimethyl-7-{3-[(pyridin-3-ylmethyl)carbamoyl]phenyl}-1,2,3,3a,3b,4,5,7,10, 10a,10b,11,12,12a-tetradecahydrocyclo-penta[5,6]naphtho [1,2-f]indazol-1-yl methoxyacetate]",1.5
4,"COCC(=O)O[C@]1(C(=O)SCC#N)CC[C@H]2[C@@H]3CCC4=Cc5c(cnn5-c5cccc(C(=O)N6CCC[C@@H]6C(N)=O)c5)C[C@]4(C)[C@@]3(F)[C@@H](O)C[C@@]21C [Example 57, (1R,3aS,3bS,10aS, 10bR,11S,12aS)-7-(3-{[(2R)-2-carbamoyl-pyrrolidin-1-yl]carbonyl}phenyl)-1-{[(cyanomethyl)sulfanyl]carbonyl}-10b-fluoro-11-hydroxy-10a,12a-dimethyl-1,2,3,3a,3b,4,5,7,10, 10a,10b,11,12,12a-tetradecahydrocyclo-penta[5,6]naphtho [1,2-f]indazol-1-yl methoxyacetate]",10
5,"CCC(=O)O[C@]1(C(=O)SCCO)CC[C@H]2[C@@H]3CCC4=Cc5c(cnn5-c5cccc(C(=O)N6CCC[C@@H]6C(N)=O)c5)C[C@]4(C)[C@@]3(F)[C@@H](O)C[C@@]21C [Example 58, (1R,3aS,3bS,10aS, 10bR,11S,12aS)-7-(3-{[(2R)-2-carbamoyl-pyrrolidin-1-yl]carbonyl}phenyl)-10b-fluoro-11-hydroxy-1-{[(2-hydroxyethyl)sulfanyl]carbonyl}-10a,12a-dimethyl-1,2,3,3a,3b,4,5,7,10, 10a,10b,11,12,12a-tetradecahydrocyclo-penta[5,6]naphtho [1,2-f]indazol-1-yl propanoate]",6.9
6,"CCC(=O)O[C@]1(C(=O)SCF)CC[C@H]2[C@@H]3CCC4=Cc5c(cnn5-c5cccc(C(=O)NC6CCCC6)c5)C[C@]4(C)[C@H]3[C@@H](O)C[C@@]21C [Example 62, (1R,3aS,3bS,10aR, 10bS,11S,12aS)-7-[3-(cyclopentylcarbamoyl)phenyl]-1-{[(fluoromethyl)sulfanyl]carbonyl}-11-hydroxy-10a,12a-dimethyl-1,2,3,3a,3b,4,5,7,10, 10a,10b,11,12,12a-tetradecahydrocyclo-penta[5,6]naphtho [1,2-f]indazol-1-yl propanoate]",3.6

# Second part, the compound after the results:
row,IC50 [nM],Compound
1,2.5,"CSC(=O)[C@@]1(OC(=O)C2CC2)CC[C@H]2[C@@H]3CCC4=Cc5c(cnn5-c5cccc(C(=O)N6CCC[C@@H]6C(N)=O)c5)C[C@]4(C)[C@@]3(F)[C@@H](O)C[C@@]21C [Example 53, (1R,3aS,3bS,10aS,10bR,11S,12aS)-7-(3-{[(2R)-2-carbamoylpyrrolidin-1-yl]carbonyl}phenyl)-10b-fluoro-11-hydroxy-10a,12a-dimethyl-1-[(methylsulfanyl)carbonyl]-1,2,3,3a,3b,4,5,7,10,10a,10b,11,12,12a-tetradecahydrocyclopenta[5,6]naphtho[1,2-f]indazol-1-yl cyclopropanecarboxylate]"
2,4.2,"C[C@]12Cc3cnn(-c4cccc(C(=O)N5CCC[C@@H]5C(N)=O)c4)c3C=C1CC[C@H]1[C@@H]3CC[C@](OC(=O)C4CC4)(C(=O)SCC#N)[C@@]3(C)C[C@H](O)[C@@]12F [Example 54, (1R,3aS,3bS,10aS, 10bR,11S,12aS)-7-(3-{[(2R)-2-carbamoyl-pyrrolidin-1-yl]carbonyl}phenyl)-1-{[(cyanomethyl)sulfanyl]carbonyl}-10b-fluoro-11-hydroxy-10a,12a-dimethyl-1,2,3,3a, 3b,4,5,7,10,10a,- 10b,11,12,12a-tetradeca-hydrocyclo-penta[5,6]naphtho [1,2-f]indazol-1-yl cyclopropanecarboxylate]"
3,3.5,"C[C@]12Cc3cnn(-c4cccc(C(=O)N5CCC[C@@H]5C(N)=O)c4)c3C=C1CC[C@H]1[C@@H]3CC[C@](OC(=O)C4CC4)(C(=O)SCF)[C@@]3(C)C[C@H](O)[C@@]12F [Example 55, (1R,3aS,3bS,10aS, 10bR,11S,12aS)-7-(3-{[(2R)-2-carbamoyl-pyrrolidin-1-yl]carbonyl}phenyl)-10b-fluoro-1-{[(fluoromethyl)sulfanyl]carbonyl}-11-hydroxy-10a,12a-dimethyl-1,2,3,3a,3b,4,5,7,10, 10a,10b,11,12,12a-tetradecahydrocyclo-penta[5,6]naphtho [1,2-f]indazol-1-yl cyclopropanecarboxylate]"
4,8.6,"COCC(=O)O[C@]1(C(=O)SC)CC[C@H]2[C@@H]3CCC4=Cc5c(cnn5-c5cccc(C(=O)N6CCC[C@@H]6C(N)=O)c5)C[C@]4(C)[C@@]3(F)[C@@H](O)C[C@@]21C [Example 56, (1R,3aS,3bS,10aS,10bR,11S,12aS)-7-(3-{[(2R)-2-carbamoylpyrrolidin-1-yl]carbonyl}phenyl)-10b-fluoro-11-hydroxy-10a,12a-dimethyl-1-[(methylsulfanyl)carbonyl]-1,2,3,3a,3b,4,5,7,10,10a,10b,11,12,12a-tetradecahydrocyclopenta[5,6]naphtho[1,2-f]indazol-1-yl methoxyacetate]"
5,3.3,"CCC(=O)O[C@]1(C(=O)SC)CC[C@H]2[C@@H]3CCC4=Cc5c(cnn5-c5cccc(C(=O)N6CCC[C@@H]6C(N)=O)c5)C[C@]4(C)[C@@]3(F)[C@@H](O)C[C@@]21C [Example 59, (1R,3aS,3bS,10aS, 10bR,11S,12aS)-7-(3-{[(2R)-2-carbamoyl-pyrrolidin-1-yl]carbonyl}phenyl)-10b-fluoro-11-hydroxy-10a,12a-dimethyl-1-[(methylsulfanyl)carbonyl]-1,2,3,3a,3b,4,5,7,10, 10a,10b,11,12,12a-tetradecahydrocyclo-penta[5,6]naphtho [1,2-f]indazol-1-yl propanoate]"
6,3.3,"CCC(=O)O[C@]1(C(=O)SCC#N)CC[C@H]2[C@@H]3CCC4=Cc5c(cnn5-c5cccc(C(=O)N6CCC[C@@H]6C(N)=O)c5)C[C@]4(C)[C@@]3(F)[C@@H](O)C[C@@]21C [Example 60, (1R,3aS,3bS,10aS, 10bR,11S,12aS)-7-(3-{[(2R)-2-carbamoyl-pyrrolidin-1-yl]carbonyl}phenyl)-1-{[(cyanomethyl)sulfanyl]carbonyl}-10b-fluoro-11-hydroxy-10a,12a-dimethyl-1,2,3,3a, 3b,4,5,7,10,- 10a,10b,11,12,12a-tetradecahydro-cyclopenta[5,6]naphtho [1,2-f]indazol-1-yl propanoate]"
7,3.6,"CCC(=O)O[C@]1(C(=O)SCF)CC[C@H]2[C@@H]3CCC4=Cc5c(cnn5-c5cccc(C(=O)N6CCC[C@@H]6C(N)=O)c5)C[C@]4(C)[C@@]3(F)[C@@H](O)C[C@@]21C [Example 61, (1R,3aS,3bS,10aS, 10bR,11S,12aS)-7-(3-{[(2R)-2-carbamoyl-pyrrolidin-1-yl]carbonyl}phenyl)-10b-fluoro-1-{[(fluoromethyl)sulfanyl]carbonyl}-11-hydroxy-10a,12a-dimethyl-1,2,3,3a,3b,4,5,7,10, 10a,10b,11,12,12a-tetradecahydrocyclo-penta[5,6]naphtho [1,2-f]indazol-1-yl propanoate]"
